From patent US11173145B2, “Compounds useful as inhibitors of indoleamine 2,3-dioxygenase and/or tryptophan dioxygenase” (Board of Regents, The University of Texas System, priority 2017, dated 2021)

These compounds were tested against T1, IDO1 (Homo sapiens, UniProt P14902) (assay: IDO1 cell-based assay (HeLa cells, IFNgamma-induced, N-formylkynurenine/L-tryptophan by RFMS)). Settings: 10 ng/mL IFNgamma, 24 hours.
T1 construct: endogenous in cells; host or cells: HeLa cells (ATCC), IFNgamma-induced
T1 sequence (P14902 whole entry): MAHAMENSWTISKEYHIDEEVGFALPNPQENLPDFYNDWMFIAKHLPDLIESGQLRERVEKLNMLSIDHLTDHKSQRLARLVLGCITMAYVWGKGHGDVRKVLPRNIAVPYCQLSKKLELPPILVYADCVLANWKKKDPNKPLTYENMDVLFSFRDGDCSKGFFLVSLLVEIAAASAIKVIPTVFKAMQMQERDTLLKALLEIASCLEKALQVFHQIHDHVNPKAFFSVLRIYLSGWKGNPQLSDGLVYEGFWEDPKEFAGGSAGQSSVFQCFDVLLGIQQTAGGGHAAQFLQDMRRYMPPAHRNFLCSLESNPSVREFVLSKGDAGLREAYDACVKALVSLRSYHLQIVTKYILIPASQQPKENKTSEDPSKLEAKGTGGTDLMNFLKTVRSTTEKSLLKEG
Method: HeLa cells were obtained from the American Type Culture Collection (ATCC) and maintained in DMEM media containing 10% FBS. Cells (7,000/well) were seeded onto a 384 well plate in 50 μL of media and incubated at 37° C., 5% CO2 overnight. Cell media was aspirated, fresh media containing 10 ng/mL IFNgamma was added, and cells were incubated in absence or presence of various concentrations of test compound (final 0.5% DMSO) for 24 hours. Aliquots of the cell conditioned media were removed from the cell plate, and mixed with an equal volume of 200 mM ZnSO4 to precipitate media containing proteins. Two volumes of acetonitrile were added, mixed, and samples were then centrifuged at 2250G for 20 minutes at 4° C. Aliquots of the supernatant were diluted 1:10 in 0.1% formic acid containing 3 μM of deuterated Tryptophan as an internal standard.
Samples were analyzed via RFMS to quantify N-Formyl Kynurenine (AUC) and L-tryptophan (AUC). A C18 cartridge was used with mobile phases of 0.1% Formic Acid and 80% ACN/0.1% Formic Acid under isocratic conditions. Dose-response curves were analyzed using IC50 regression curve fitting (GeneData Screener). […] Cell viability was also assessed using the Cell Titer Glo Kit (Promega) following manufacturer recommendation.

| Compound | IC50 |
| --- | --- |
| CC[C@@H](NC(=O)c1csc(C)n1)[C@H]1[C@@H]2C[C@@H](n3cnc4cc(F)c(F)cc43)C[C@@H]21 [Compound 309, N-((R)-1-((1R,3S,5S,6r)-3-(5,6-difluoro-1H-benzo[d]imidazol-1-yl)bicyclo[3.1.0]hexan-6-yl)propyl)-2-methylthiazole-4-carboxamide] | 200 to 2000 nM |
| CCC(NC(=O)c1ccc(OC)nc1)[C@H]1[C@@H]2C[C@@H](n3cnc4ccc(F)cc4c3=O)C[C@@H]21 (stereo partly drawn) [Compound 74, N-(1-((1R,3s,5S,6r)-3-(6-fluoro-4-oxoquinazolin-3(4H)-yl)bicyclo[3.1.0]hexan-6-yl)propyl)-6-methoxynicotinamide] | 200 to 2000 nM |
| CC[C@@H](NC(=O)c1ccc(Cl)cc1)[C@H]1[C@@H]2C[C@@H](n3cc(C(C)(C)O)nn3)C[C@@H]21 [Compound 142, 4-chloro-N-((S)-1-((1R,3R,5S,6r)-3-(4-(2-hydroxypropan-2-yl)-1H-1,2,3-triazol-1-yl)bicyclo[3.1.0]hexan-6-yl)propyl)benzamide] | > 5000 nM |
| CCC(NC(=O)c1ccc(Cl)cc1)[C@H]1[C@@H]2C[C@@H](NS(C)(=O)=O)C[C@@H]21 (stereo partly drawn) [Compound 159, 4-chloro-N-(1-((1R,3s,5S,6r)-3-(methylsulfonamido)bicyclo[3.1.0]hexan-6-yl)propyl)benzamide] | 200 to 2000 nM |
| CC[C@@H](NC(=O)c1ccc(C#N)cc1)[C@H]1[C@@H]2C[C@@H](n3c(C)nc4ccc(C#N)cc43)C[C@@H]21 [Compound 293, 4-cyano-N-((R)-1-((1R,3S,5S,6r)-3-(6-cyano-2-methyl-1H-benzo[d]imidazol-1-yl)bicyclo[3.1.0]hexan-6-yl)propyl)benzamide] | 200 to 2000 nM |
| O=C(Nc1ccc(Cl)cc1)C1[C@H]2CC(Oc3ccnc4ccccc34)C[C@@H]12 (stereo partly drawn) [Compound 8, (1R,5S)-N-(4-chlorophenyl)-3-(quinolin-4-yloxy)bicyclo[3.1.0]hexane-6-carboxamide] | 2000 to 5000 nM |
| CCC(NC(=O)c1ccc(Cl)cc1)[C@H]1[C@@H]2C[C@@H](n3cc(C(C)(C)O)nn3)C[C@@H]21 (stereo partly drawn) [Compound 141, 4-chloro-N-((R)-1-((1R,3S,5S,6r)-3-(4-(2-hydroxypropan-2-yl)-1H-1,2,3-triazol-1-yl)bicyclo[3.1.0]hexan-6-yl)propyl)benzamide] | 200 to 2000 nM |
| CCC(NC(=O)c1ccc(Cl)cc1)[C@H]1[C@@H]2C[C@@H](n3nncc3CO)C[C@@H]21 (stereo partly drawn) [Compound 155, 4-chloro-N-(1-((1R,3s,5S,6r)-3-(5-(hydroxymethyl)-1H-1,2,3-triazol-1-yl)bicyclo[3.1.0]hexan-6-yl)propyl)benzamide] | 200 to 2000 nM |
| CCC(NC(=O)c1ccc(Cl)cn1)C1[C@H]2CC(Oc3cnnc4ccccc34)C[C@@H]12 (stereo partly drawn) [Compound 77, 5-chloro-N-(1-((1R,5S)-3-(cinnolin-4-yloxy)bicyclo[3.1.0]hexan-6-yl)propyl)picolinamide] | 200 to 2000 nM |
| O=C(NC[C@@H]1[C@H]2C[C@H](n3cnc4ccc(F)cc4c3=O)C[C@@H]12)c1ccc(Cl)cc1 [Compound 65, 4-chloro-N-(((1R,3s,5S,6r)-3-(6-fluoro-4-oxoquinazolin-3(4H)-yl)bicyclo[3.1.0]hexan-6-yl)methyl)benzamide] | 200 to 2000 nM |
| CCC(NC(=O)c1cnc(OC)nc1)[C@H]1[C@@H]2C[C@@H](Oc3ncnc4ccc(F)cc34)C[C@@H]21 (stereo partly drawn) [Compound 68, N-(1-((1R,3s,5S,6r)-3-((6-fluoroquinazolin-4-yl)oxy)bicyclo[3.1.0]hexan-6-yl)propyl)-2-methoxypyrimidine-5-carboxamide] | 2000 to 5000 nM |

The next lines start with the values.

| IC50 | Compound |
| --- | --- |
| 200 to 2000 nM | N#Cc1cccc(C(=O)NC[C@@H]2[C@H]3C[C@H](n4cnc5cc(F)c(F)cc54)C[C@@H]23)c1 [Compound 321, 3-cyano-N-(((1R,3s,5S,6r)-3-(5,6-difluoro-1H-benzo[d]imidazol-1-yl)bicyclo[3.1.0]hexan-6-yl)methyl)benzamide] |
| < 200 nM | CCC(NC(=O)c1ccc(Cl)cc1)[C@H]1[C@@H]2C[C@@H](NC(=O)c3cnccn3)C[C@@H]21 (stereo partly drawn) [Compound 152, N-((1R,3s,5S,6r)-6-(1-(4-chlorobenzamido)propyl)bicyclo[3.1.0]hexan-3-yl)pyrazine-2-carboxamide] |
| < 200 nM | CCC(NC(=O)c1ccc(Cl)cc1)[C@H]1[C@@H]2C[C@@H](N3C(=O)Cc4cc(F)ccc43)C[C@@H]21 (stereo partly drawn) [Compound 121, 4-chloro-N-(1-((1R,3s,5S,6r)-3-(5-fluoro-2-oxoindolin-1-yl)bicyclo[3.1.0]hexan-6-yl)propyl)benzamide] |
| < 200 nM | CCC(NC(=O)c1ccc(Cl)cc1)[C@H]1[C@@H]2C[C@@H](Oc3ccc(F)cc3)C[C@@H]21 (stereo partly drawn) [Compound 14, 4-chloro-N-(1-((1R,3s,5S,6r)-3-(4-fluorophenoxy)bicyclo[3.1.0]hexan-6-yl)propyl)benzamide] |
| < 200 nM | CC[C@@H](NC(=O)c1ccc(Cl)cc1)[C@H]1[C@@H]2C[C@@H](NC(=O)c3ccccn3)C[C@@H]21 [Compound 333, N-((1R,3S,5S,6r)-6-((R)-1-(4-chlorobenzamido)propyl)bicyclo[3.1.0]hexan-3-yl)picolinamide] |
| < 200 nM | CCC(NC(=O)c1ccc(Cl)cc1)C1C2CC(Oc3nncc4ccccc34)CC21 [Compound 72, 4-chloro-N-(1-((1R,3s,5S,6r)-3-(phthalazin-1-yloxy)bicyclo[3.1.0]hexan-6-yl)propyl)benzamide] |
| < 200 nM | CCC(NC(=O)c1ccc(Cl)cc1)[C@H]1[C@@H]2C[C@@H](NC(=O)c3ccncn3)C[C@@H]21 (stereo partly drawn) [Compound 149, N-((1R,3s,5S,6r)-6-(1-(4-chlorobenzamido)propyl)bicyclo[3.1.0]hexan-3-yl)pyrimidine-4-carboxamide] |
| < 200 nM | CCC(NC(=O)c1ccc(Cl)cc1)[C@H]1[C@@H]2C[C@@H](Oc3cccc(C)n3)C[C@@H]21 (stereo partly drawn) [Compound 40, 4-chloro-N-(1-((1R,3s,5S,6r)-3-((6-methylpyridin-2-yl)oxy)bicyclo[3.1.0]hexan-6-yl)propyl)benzamide] |
| < 200 nM | CC[C@@H](NC(=O)c1ccc(Cl)cc1)[C@H]1[C@@H]2C[C@@H](c3ncnc4ccc(F)cc34)C[C@@H]21 [Compound 279, 4-chloro-N-((R)-1-((1R,3S,5S,6r)-3-(6-fluoroquinazolin-4-yl)bicyclo[3.1.0]hexan-6-yl)propyl)benzamide] |
| < 200 nM | CCC(NC(=O)c1ccc(Cl)cc1)[C@H]1[C@@H]2C[C@@H](n3nncc3C(C)(C)O)C[C@@H]21 (stereo partly drawn) [Compound 154, 4-chloro-N-(1-((1R,3s,5S,6r)-3-(5-(2-hydroxypropan-2-yl)-1H-1,2,3-triazol-1-yl)bicyclo[3.1.0]hexan-6-yl)propyl)benzamide] |
| < 200 nM | CC(C(=O)Nc1ccc(Cl)cc1)[C@H]1[C@@H]2C[C@@H](Oc3ccnc4ccc(F)cc34)C[C@@H]21 (stereo partly drawn) [Compound 347, N-(4-chlorophenyl)-2-((1R,3s,5S,6r)-3-((6-fluoroquinolin-4-yl)oxy)bicyclo[3.1.0]hexan-6-yl)propanamide] |
| < 200 nM | CCC(NC(=O)c1ccc(Cl)cc1)[C@H]1[C@@H]2C[C@@H](Oc3cncc(F)c3)C[C@@H]21 (stereo partly drawn) [Compound 58, 4-chloro-N-(1-((1R,3s,5S,6r)-3-((5-fluoropyridin-3-yl)oxy)bicyclo[3.1.0]hexan-6-yl)propyl)benzamide] |
